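Cultured in 96-well plates, cells were exposed to test compound for 48 hours across five concentrations. At the GI50, growth is halved. The concentration for full growth arrest is given as TGI.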
These molecules were tested on MOLT-4 leukemia (assay: NCI anticancer screen, dose series, 48 h).

Row | SMILES | TGI | GI50
1 | CC1=CC(=O)CC2(C)CCC(C(C)CC(=O)CC(C)C)CC12 (configuration not stated) | 40.6 µM | 
2 | CC(C)(C)OC(=O)C1C(=O)NC(=O)CC1C(COCc1ccccc1)OCc1ccccc1 (configuration not stated) | 52.9 µM | 
3 | O=C(CCCN1CCC2(CC1)C(=NC1CCCCC1)NC(=O)N2c1ccccc1)c1ccc(F)cc1 | 57.2 µM | 
4 | CCOC(=O)[C@@H]1ON2O[C@@H](OC3CCCC3(c3ccccc3)c3ccccc3)C[C@H]3OC(=O)[C@@H]1C32 (some centres not stated) | > 100 µM | 
5 | COc1cc2c(c(O)c1O)-c1ccc(OC)c(=O)cc1C(NC(C)=O)CC2 (configuration not stated) | > 64.3 µM | 
6 | CC(C)(C)C(=O)C(Cc1ccccc1)C(=O)C(C)(C)C | > 100 µM | 
7 | C=C(C)[C@@]1(O[Si](C)(C)C)CCCC[C@@H]1CC(Sc1ccccc1)Sc1ccccc1 | 25.7 µM | 
8 | CCN1C(=O)N(CC)C2Nn3c(s/c(=C4\C(=O)N(C)c5ccccc54)c3=O)=NC21 (configuration not stated) | > 100 µM | 3.92 µM
9 | O=C(c1ccccc1)N1C(=S)N=C(Nc2ccccc2)C1=Nc1ccccc1 | > 100 µM | 
10 | NC(=O)c1ncn2c1NC(=O)CC2 | > 100 µM | 
11 | O=C(Nc1ccc(-n2cc(-c3ccncc3)c(-c3ccc(O)c(Cl)c3)n2)cc1)Nc1cccc(Cl)c1Cl | > 32.5 µM | 3.7 µM
12 | O=C1CCCc2cc3c(cc21)CC1(C3)Cc2ccc3c(c2C1)C(=O)CCC3 (configuration not stated) | 22.7 µM | 
13 | COc1ccccc1N1CCN(CCCNC(=O)c2cc(Cl)c(N)c(Cl)c2)CC1 | 92.6 µM | 
14 | C[C@]12CC[C@H](O)C=C1CC[C@@H]1[C@@H]2CC[C@]2(C)C(c3ccc(=O)oc3)CC[C@]12O (some centres not stated) | < 0.0125 µM | 
15 | COc1cc(CC(C)N)ccc1O (configuration not stated) | > 100 µM | 
16 | O=C([CH-]C(=O)c1ccccc1)c1ccccc1.O=C([CH-]C(=O)c1ccccc1)c1ccccc1.[O]=[U+2]=[O] | 27.3 µM | 2.57 µM

What follows are molecules tested on COLO 205 colon (assay: NCI anticancer screen, dose series, 48 h).

Row | SMILES | TGI | GI50
17 | CC1=CC(=O)CC2(C)CCC(C(C)CC(=O)CC(C)C)CC12 (configuration not stated) | 31.8 µM | 
18 | CC1(C)[C@@H](Cn2cnc3c(Cl)nc(N)nc32)CC[C@@]1(C)CO | > 100 µM | 
19 | O=C(CCCN1CCC2(CC1)C(=NC1CCCCC1)NC(=O)N2c1ccccc1)c1ccc(F)cc1 | 31.2 µM | 
20 | CCOC(=O)[C@@H]1ON2O[C@@H](OC3CCCC3(c3ccccc3)c3ccccc3)C[C@H]3OC(=O)[C@@H]1C32 (some centres not stated) | > 100 µM | 
21 | COc1cc2c(c(O)c1O)-c1ccc(OC)c(=O)cc1C(NC(C)=O)CC2 (configuration not stated) | 12.6 µM | 
22 | CC(C)(C)C(=O)C(Cc1ccccc1)C(=O)C(C)(C)C | > 100 µM | 
23 | C=C(C)[C@@]1(O[Si](C)(C)C)CCCC[C@@H]1CC(Sc1ccccc1)Sc1ccccc1 | 38.9 µM | 
24 | CCN1C(=O)N(CC)C2Nn3c(s/c(=C4\C(=O)N(C)c5ccccc54)c3=O)=NC21 (configuration not stated) | > 100 µM | 2.26 µM
25 | O=C(c1ccccc1)N1C(=S)N=C(Nc2ccccc2)C1=Nc1ccccc1 | > 100 µM | 
26 | NC(=O)c1ncn2c1NC(=O)CC2 | > 100 µM | 
27 | O=C(Nc1ccc(-n2cc(-c3ccncc3)c(-c3ccc(O)c(Cl)c3)n2)cc1)Nc1cccc(Cl)c1Cl | 13 µM | 4.54 µM
28 | O=C1CCCc2cc3c(cc21)CC1(C3)Cc2ccc3c(c2C1)C(=O)CCC3 (configuration not stated) | 34.9 µM | 
29 | C[C@]12CC[C@H](O)C=C1CC[C@@H]1[C@@H]2CC[C@]2(C)C(c3ccc(=O)oc3)CC[C@]12O (some centres not stated) | 0.188 µM | 
30 | COc1cc(CC(C)N)ccc1O (configuration not stated) | > 100 µM | 
31 | O=C([CH-]C(=O)c1ccccc1)c1ccccc1.O=C([CH-]C(=O)c1ccccc1)c1ccccc1.[O]=[U+2]=[O] | 4.71 µM | 2.11 µM

What follows are molecules tested on A549 NSCLC (assay: NCI anticancer screen, dose series, 48 h).

Row | SMILES | TGI | GI50
32 | CC1=CC(=O)CC2(C)CCC(C(C)CC(=O)CC(C)C)CC12 (configuration not stated) | 34.8 µM | 
33 | CC(C)(C)OC(=O)C1C(=O)NC(=O)CC1C(COCc1ccccc1)OCc1ccccc1 (configuration not stated) | > 100 µM | 
34 | CC1(C)[C@@H](Cn2cnc3c(Cl)nc(N)nc32)CC[C@@]1(C)CO | > 100 µM | 
35 | O=C(CCCN1CCC2(CC1)C(=NC1CCCCC1)NC(=O)N2c1ccccc1)c1ccc(F)cc1 | > 100 µM | 
36 | CCOC(=O)[C@@H]1ON2O[C@@H](OC3CCCC3(c3ccccc3)c3ccccc3)C[C@H]3OC(=O)[C@@H]1C32 (some centres not stated) | 57.4 µM | 
37 | COc1cc2c(c(O)c1O)-c1ccc(OC)c(=O)cc1C(NC(C)=O)CC2 (configuration not stated) | > 100 µM | 
38 | CC(C)(C)C(=O)C(Cc1ccccc1)C(=O)C(C)(C)C | > 100 µM | 
39 | C=C(C)[C@@]1(O[Si](C)(C)C)CCCC[C@@H]1CC(Sc1ccccc1)Sc1ccccc1 | 23.1 µM | 
40 | CCN1C(=O)N(CC)C2Nn3c(s/c(=C4\C(=O)N(C)c5ccccc54)c3=O)=NC21 (configuration not stated) | > 100 µM | 5.08 µM
41 | O=C(c1ccccc1)N1C(=S)N=C(Nc2ccccc2)C1=Nc1ccccc1 | > 100 µM | 
42 | NC(=O)c1ncn2c1NC(=O)CC2 | > 100 µM | 
43 | O=C(Nc1ccc(-n2cc(-c3ccncc3)c(-c3ccc(O)c(Cl)c3)n2)cc1)Nc1cccc(Cl)c1Cl | > 32.5 µM | 9.11 µM
44 | O=C1CCCc2cc3c(cc21)CC1(C3)Cc2ccc3c(c2C1)C(=O)CCC3 (configuration not stated) | > 100 µM | 
45 | COc1ccccc1N1CCN(CCCNC(=O)c2cc(Cl)c(N)c(Cl)c2)CC1 | > 100 µM | 
46 | C[C@]12CC[C@H](O)C=C1CC[C@@H]1[C@@H]2CC[C@]2(C)C(c3ccc(=O)oc3)CC[C@]12O (some centres not stated) | 0.0172 µM | 
47 | COc1cc(CC(C)N)ccc1O (configuration not stated) | > 100 µM | 
48 | O=C([CH-]C(=O)c1ccccc1)c1ccccc1.O=C([CH-]C(=O)c1ccccc1)c1ccccc1.[O]=[U+2]=[O] | 18.7 µM | 3.17 µM

Each molecule was assayed on ACHN renal (assay: NCI anticancer screen, dose series, 48 h).

Row | SMILES | TGI | GI50
49 | CC1=CC(=O)CC2(C)CCC(C(C)CC(=O)CC(C)C)CC12 (configuration not stated) | 31.3 µM | 
50 | CC(C)(C)OC(=O)C1C(=O)NC(=O)CC1C(COCc1ccccc1)OCc1ccccc1 (configuration not stated) | 50.7 µM | 
51 | CC1(C)[C@@H](Cn2cnc3c(Cl)nc(N)nc32)CC[C@@]1(C)CO | > 100 µM | 
52 | O=C(CCCN1CCC2(CC1)C(=NC1CCCCC1)NC(=O)N2c1ccccc1)c1ccc(F)cc1 | > 100 µM | 
53 | CCOC(=O)[C@@H]1ON2O[C@@H](OC3CCCC3(c3ccccc3)c3ccccc3)C[C@H]3OC(=O)[C@@H]1C32 (some centres not stated) | 37 µM | 
54 | COc1cc2c(c(O)c1O)-c1ccc(OC)c(=O)cc1C(NC(C)=O)CC2 (configuration not stated) | > 100 µM | 
55 | CC(C)(C)C(=O)C(Cc1ccccc1)C(=O)C(C)(C)C | > 100 µM | 
56 | C=C(C)[C@@]1(O[Si](C)(C)C)CCCC[C@@H]1CC(Sc1ccccc1)Sc1ccccc1 | 28.8 µM | 
57 | CCN1C(=O)N(CC)C2Nn3c(s/c(=C4\C(=O)N(C)c5ccccc54)c3=O)=NC21 (configuration not stated) | > 100 µM | 3.42 µM
58 | O=C(c1ccccc1)N1C(=S)N=C(Nc2ccccc2)C1=Nc1ccccc1 | > 100 µM | 
59 | O=C(Nc1ccc(-n2cc(-c3ccncc3)c(-c3ccc(O)c(Cl)c3)n2)cc1)Nc1cccc(Cl)c1Cl | > 32.5 µM | 7.82 µM
60 | O=C1CCCc2cc3c(cc21)CC1(C3)Cc2ccc3c(c2C1)C(=O)CCC3 (configuration not stated) | 55.4 µM | 
61 | COc1ccccc1N1CCN(CCCNC(=O)c2cc(Cl)c(N)c(Cl)c2)CC1 | > 100 µM | 
62 | COc1cc(CC(C)N)ccc1O (configuration not stated) | > 100 µM | 
63 | O=C([CH-]C(=O)c1ccccc1)c1ccccc1.O=C([CH-]C(=O)c1ccccc1)c1ccccc1.[O]=[U+2]=[O] | 11.9 µM | 3.39 µM

What follows are molecules tested on BT-549 breast (assay: NCI anticancer screen, dose series, 48 h).

Row | SMILES | TGI
64 | CC(C)(C)OC(=O)C1C(=O)NC(=O)CC1C(COCc1ccccc1)OCc1ccccc1 (configuration not stated) | 55.6 µM

Each molecule was assayed on SK-MEL-28 melanoma (assay: NCI anticancer screen, dose series, 48 h).

Row | SMILES | TGI
65 | CC1=CC(=O)CC2(C)CCC(C(C)CC(=O)CC(C)C)CC12 (configuration not stated) | 72.9 µM
66 | CC(C)(C)OC(=O)C1C(=O)NC(=O)CC1C(COCc1ccccc1)OCc1ccccc1 (configuration not stated) | 32.1 µM
67 | CC1(C)[C@@H](Cn2cnc3c(Cl)nc(N)nc32)CC[C@@]1(C)CO | > 100 µM
68 | O=C(CCCN1CCC2(CC1)C(=NC1CCCCC1)NC(=O)N2c1ccccc1)c1ccc(F)cc1 | 34.2 µM
69 | COc1cc2c(c(O)c1O)-c1ccc(OC)c(=O)cc1C(NC(C)=O)CC2 (configuration not stated) | > 100 µM
70 | CC(C)(C)C(=O)C(Cc1ccccc1)C(=O)C(C)(C)C | > 100 µM
